Experiments:
Assay type in all cases: in vivo
[1] = system: Echinochloa crus-galli (ECHCG); experiment: Pre-emergence Test (glasshouse, percentage damage to the plant); settings: 1000 g/ha unless otherwise stated, five-point scale
Setaria faberi (SETFA) [2] = experiment: as above; settings: 1000 g/ha unless otherwise stated, five-point scale
Setaria faberi (SETFA) [3] = experiment: Post-emergence Test (glasshouse, percentage damage to the plant); settings: post-emergence spray, 1000 g/ha unless otherwise stated, evaluated after 13 days
Method in brief: (§1)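 Scored 13 days after spraying as percentage plant damage in five bands (5=81–100%, 4=61–80%, 3=41–60%, 2=21–40%, 1=0–20%). Spray at 1000 g/ha unless stated, in acetone/water 50:50 plus 0.5% Tween 20, onto sown glasshouse pots (24/16 °C, 14 h light, 65% humidity).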

[4] = system: Echinochloa crus-galli (ECHCG); experiment: as above; settings: post-emergence spray, 1000 g/ha unless otherwise stated, evaluated after 13 days
Method in brief: (§2)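 Compound formulated in 50:50 acetone/water with 0.5% Tween 20 was diluted to an aqueous spray and applied at 1000 g/ha, unless otherwise stated, onto sown pots. Evaluation after 13 days gave percentage damage, banded into a 1–5 score.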

[5] = system: Abutilon theophrasti (ABUTH); experiment: as above; settings: post-emergence spray, 1000 g/ha unless otherwise stated, evaluated after 13 days
Method in brief: as §2

Zea mays (ZEAMX) [6] = experiment: as above; settings: post-emergence spray, 1000 g/ha unless otherwise stated, evaluated after 13 days
Method in brief: as §1

[7] = system: Amaranthus retoflexus (AMARE); experiment: as above; settings: post-emergence spray, 1000 g/ha unless otherwise stated, evaluated after 13 days
Method in brief: as §2

[8] = system: Ipomoea hederacea (IPOHE); experiment: as above; settings: post-emergence spray, 1000 g/ha unless otherwise stated, evaluated after 13 days
Method in brief: as §1

[9] = system: Amaranthus retoflexus (AMARE); experiment: Pre-emergence Test (glasshouse, percentage damage to the plant); settings: 1000 g/ha unless otherwise stated, five-point scale
[10] = system: Abutilon theophrasti (ABUTH); experiment: as above; settings: 1000 g/ha unless otherwise stated, five-point scale
[11] = system: Ipomoea hederacea (IPOHE); experiment: as above; settings: 1000 g/ha unless otherwise stated, five-point scale
Zea mays (ZEAMX) [12] = experiment: as above; settings: 1000 g/ha unless otherwise stated, five-point scale

SMILES | percentage damage to the plant, ECHCG [1] | percentage damage to the plant, SETFA (Setaria faberi (SETFA) [2]) | Post-emergence Test SETFA, percentage damage to the plant (five-point scale) (Setaria faberi (SETFA) [3]) | Post-emergence Test ECHCG, percentage damage to the plant (five-point scale) [4] | Post-emergence Test ABUTH, percentage damage to the plant (five-point scale) [5] | Post-emergence Test ZEAMX, percentage damage to the plant (five-point scale) (Zea mays (ZEAMX) [6]) | Post-emergence Test AMARE, percentage damage to the plant (five-point scale) [7] | Post-emergence Test IPOHE, percentage damage to the plant (five-point scale) [8] | percentage damage to the plant, AMARE [9] | percentage damage to the plant, ABUTH [10] | percentage damage to the plant, IPOHE [11] | percentage damage to the plant, ZEAMX (Zea mays (ZEAMX) [12])
CCn1c(C)c(-c2ccc(OC)c(Cl)c2)c(=O)c(C(=O)O)c1-c1ccc(Cl)c(Cl)c1 [Compound 101, 5-(3-chloro-4-methoxy-phenyl)-2-(3,4-dichlorophenyl)-1-ethyl-6-methyl-4-oxo-pyridine-3-carboxylic acid] | 2 (2=21-40%) | 4 (4=61-80%) | 3 (3=41-60%) | 3 (3=41-60%) | 3 (3=41-60%) | 2 (2=21-40%) | 3 (3=41-60%) | 2 (2=21-40%) | 2 (2=21-40%) | 2 (2=21-40%) | 1 (1=0-20%) | 2 (2=21-40%)
CCn1c(C)c(-c2ccc(OC)c(F)c2)c(=O)c(C(=O)O)c1-c1ccc(Cl)c(Cl)c1 [Compound 102, 2-(3,4-dichlorophenyl)-1-ethyl-5-(3-fluoro-4-methoxy-phenyl)-6-methyl-4-oxo-pyridine-3-carboxylic acid] | 2 (2=21-40%) | 4 (4=61-80%) | 4 (4=61-80%) | 3 (3=41-60%) | 3 (3=41-60%) | 1 (1=0-20%) | 3 (3=41-60%) | 3 (3=41-60%) | 2 (2=21-40%) | 3 (3=41-60%) | 3 (3=41-60%) | 1 (1=0-20%)
CCOc1cc(C)cc(-c2c(C)n(CC)c(-c3ccc(Cl)c(Cl)c3)c(C(=O)O)c2=O)c1 [Compound 103, 2-(3,4-dichlorophenyl)-5-(3-ethoxy-5-methyl-phenyl)-1-ethyl-6-methyl-4-oxo-pyridine-3-carboxylic acid] | 1 (1=0-20%) | 2 (2=21-40%) | 1 (1=0-20%) | 1 (1=0-20%) | 2 (2=21-40%) | 1 (1=0-20%) | 1 (1=0-20%) | 1 (1=0-20%) | 1 (1=0-20%) | 1 (1=0-20%) | 1 (1=0-20%) | 1 (1=0-20%)
CCn1c(C)c(-c2ccc(F)c(F)c2)c(=O)c(C(=O)O)c1-c1ccc(Cl)c(Cl)c1 [Compound 104, 2-(3,4-dichlorophenyl)-5-(3,4-difluorophenyl)-1-ethyl-6-methyl-4-oxo-pyridine-3-carboxylic acid] | 2 (2=21-40%) | 4 (4=61-80%) | 4 (4=61-80%) | 3 (3=41-60%) | 3 (3=41-60%) | 1 (1=0-20%) | 3 (3=41-60%) | 1 (1=0-20%) | 4 (4=61-80%) | 2 (2=21-40%) | 1 (1=0-20%) | 1 (1=0-20%)
CCn1c(C)c(-c2ccc(F)c(OCC(F)(F)F)c2)c(=O)c(C(=O)O)c1-c1ccc(Cl)c(Cl)c1 [Compound 105, 2-(3,4-dichlorophenyl)-1-ethyl-5-[4-fluoro-3-(2,2,2-trifluoroethoxy)phenyl]-6-methyl-4-oxo-pyridine-3-carboxylic acid] | 2 (2=21-40%) | 4 (4=61-80%) | 4 (4=61-80%) | 3 (3=41-60%) | 2 (2=21-40%) | 2 (2=21-40%) | 2 (2=21-40%) | 1 (1=0-20%) | 3 (3=41-60%) | 1 (1=0-20%) | 1 (1=0-20%) | 1 (1=0-20%)
CCn1c(C)c(-c2cccc(C(F)F)c2)c(=O)c(C(=O)O)c1-c1ccc(Cl)c(Cl)c1 [Compound 106, 2-(3,4-dichlorophenyl)-5-[3-(difluoromethyl)phenyl]-1-ethyl-6-methyl-4-oxo-pyridine-3-carboxylic acid] | 1 (1=0-20%) | 1 (1=0-20%) | 1 (1=0-20%) | 1 (1=0-20%) | 3 (3=41-60%) | 1 (1=0-20%) | 3 (3=41-60%) | 2 (2=21-40%) | 1 (1=0-20%) | 2 (2=21-40%) | 1 (1=0-20%) | 1 (1=0-20%)
CCOc1cc(-c2c(C)n(CC)c(-c3ccc(Cl)c(Cl)c3)c(C(=O)O)c2=O)ccc1C#N [Compound 107, 5-(4-cyano-3-ethoxy-phenyl)-2-(3,4-dichlorophenyl)-1-ethyl-6-methyl-4-oxo-pyridine-3-carboxylic acid] | 4 (4=61-80%) | 5 (5=81-100%) | 2 (2=21-40%) | 2 (2=21-40%) | 3 (3=41-60%) | 2 (2=21-40%) | 4 (4=61-80%) | 3 (3=41-60%) | 4 (4=61-80%) | 1 (1=0-20%) | 1 (1=0-20%) | 1 (1=0-20%)
CCn1c(C)c(-c2ccc(C(F)(F)F)nc2)c(=O)c(C(=O)O)c1-c1ccc(Cl)c(Cl)c1 [Compound 108, 2-(3,4-dichlorophenyl)-1-ethyl-6-methyl-4-oxo-5-[6-(trifluoromethyl)-3-pyridyl]pyridine-3-carboxylic acid] | 1 (1=0-20%) | 3 (3=41-60%) | 3 (3=41-60%) | 2 (2=21-40%) | 2 (2=21-40%) | 2 (2=21-40%) | 2 (2=21-40%) | 2 (2=21-40%) | 1 (1=0-20%) | 1 (1=0-20%) | 1 (1=0-20%) | 1 (1=0-20%)
